Experimental data: patent publication US20090130188A9, “Acrylic pressure sensitive adhesives” (National Starch and Chemical Investment Holding Company, priority 2005, published 2009)
Read-outs that look alike come from different tables or passages of the source.

Legend:
[1] = Cholesteryl dodecanoate added to adhesive solutions, mixed overnight at room temperature; assay type: physicochemical; conditions: 1% on a solids basis
Protocol: Cholesteryl dodecanoate, a model for a highly lipophilic drug, was added at 1% on a solids basis to the solutions of Example 7 and 8. These were then mixed overnight at room temperature.

[2] = Ketoprofen added to adhesive solutions, mixed overnight, dissolved vs dispersed; assay type: physicochemical; conditions: 15% on a solids basis
[3] = for state of ketoprofen in dried adhesive film: dried 30 minutes at 60° C.
[4] = film from conventional adhesive solution (Comparative Example 2)

Row | Compound | dissolution of model active in adhesive solution ([1]; solution of Example 7 (ethanol)) | dissolution of model active in adhesive solution ([1]; solution of Example 8 (δ 19.4)) | dissolution of ketoprofen in adhesive solution ([2]; adhesive solution of Example 1 (cyclohexane, δ 16.8), tube B) | dissolution of ketoprofen in adhesive solution ([2]; adhesive solution of Example 2 (δ 19.0), tube A) | enthalpy of fusion by DSC [3, 4] | state of ketoprofen in dried adhesive film [3, 4] | state of ketoprofen in dried adhesive film ([3]; film from cyclohexane adhesive solution (Example 1))
1 | CCCCCCCCCCCC(=O)O[C@H]1CC[C@@]2(C)C(=CC[C@H]3[C@@H]4CC[C@H]([C@H](C)CCCC(C)C)[C@@]4(C)CC[C@@H]32)C1 [Cholesteryl dodecanoate] | large quantity of undissolved model active | completely soluble |  |  |  |  | 
2 | CC(C(=O)O)c1cccc(C(=O)c2ccccc2)c1 (stereo not shown) [ketoprofen] |  |  | most of the ketoprofen remained as a dispersed solid | completely dissolved | zero | no visible crystals | undissolved crystals
